# System: 996289-038-R-J1-PDC complex spheroid viability
# Test: Anticancer human tumor 996289-038-R-J1-PDC patient-derived colon adenocarcinoma cell line growth inhibition [CLK]
# Conditions: for IC50: curve of first compound; for viability, T/C: stronger effect = lower value
# Summary of the method: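 Multi-cell-type spheroids combined patient-derived tumor cells with HUVEC endothelial cells and human mesenchymal stem cells. Paired agents were dosed in half-log steps down from about clinical Cmax, or from 10 microM where Cmax was unknown.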
# [1] = second compound 0.0316 µM, first compound 0.0316 µM
# [2] = second compound 0.0316 µM, first compound 0.1 µM
# [3] = second compound 0.0316 µM, first compound 0.316 µM
# [4] = second compound 0.0316 µM, first compound 1 µM
# [5] = second compound 0.0316 µM, first compound 3.16 µM
# [6] = second compound 0.0316 µM, first compound 10 µM
# [7] = second compound 0.1 µM, first compound 0.0316 µM
# [8] = second compound 0.1 µM, first compound 0.1 µM
# [9] = second compound 0.1 µM, first compound 0.316 µM
# [10] = second compound 0.1 µM, first compound 1 µM
# [11] = second compound 0.1 µM, first compound 3.16 µM
# [12] = second compound 0.1 µM, first compound 10 µM
# [13] = second compound 0.316 µM, first compound 0.0316 µM
# [14] = second compound 0.316 µM, first compound 0.1 µM
# [15] = second compound 0.316 µM, first compound 0.316 µM
# [16] = second compound 0.316 µM, first compound 1 µM
# [17] = second compound 0.316 µM, first compound 3.16 µM
# [18] = second compound 0.316 µM, first compound 10 µM
# [19] = second compound 1 µM, first compound 0.0316 µM
# [20] = second compound 1 µM, first compound 0.1 µM
# [21] = second compound 1 µM, first compound 0.316 µM
# [22] = second compound 1 µM, first compound 1 µM
# [23] = second compound 1 µM, first compound 3.16 µM
# [24] = second compound 1 µM, first compound 10 µM
# [25] = second compound 3.16 µM, first compound 0.0316 µM
# [26] = second compound 3.16 µM, first compound 0.1 µM
# [27] = second compound 3.16 µM, first compound 0.316 µM
# [28] = second compound 3.16 µM, first compound 1 µM
# [29] = second compound 3.16 µM, first compound 3.16 µM
# [30] = second compound 3.16 µM, first compound 10 µM
# [31] = second compound 10 µM, first compound 0.0316 µM
# [32] = second compound 10 µM, first compound 0.1 µM
# [33] = second compound 10 µM, first compound 0.316 µM
# [34] = second compound 10 µM, first compound 1 µM
# [35] = second compound 10 µM, first compound 3.16 µM
# [36] = second compound 10 µM, first compound 10 µM
# 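Note: spheroids exposed to the agents for 7 days before readout.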
smiles,measurement,setting,value
CC1(C)CCC(CN2CCN(c3ccc(C(=O)NS(=O)(=O)c4ccc(NCC5CCOCC5)c([N+](=O)[O-])c4)c(Oc4cnc5[nH]ccc5c4)c3)CC2)=C(c2ccc(Cl)cc2)C1 + CN1CCN(c2cc(C(=O)Nc3cc4cc(-c5cnn(C)c5)ccc4cn3)ccn2)CC1,IC50,second compound 0.0316 µM,8460 nM
same,IC50,second compound 0.1 µM,6780 nM
same,IC50,second compound 0.316 µM,5350 nM
same,IC50,second compound 1 µM,< 31.6 nM
same,IC50,second compound 3.16 µM,< 31.6 nM
same,IC50,second compound 10 µM,< 31.6 nM
same,"viability, T/C",[1],107%
same,"viability, T/C",[2],92.1%
same,"viability, T/C",[3],99.5%
same,"viability, T/C",[4],104%
same,"viability, T/C",[5],111%
same,"viability, T/C",[6],41%
same,"viability, T/C",[7],93.1%
same,"viability, T/C",[8],92.7%
same,"viability, T/C",[9],91.3%
same,"viability, T/C",[10],102%
same,"viability, T/C",[11],92.1%
same,"viability, T/C",[12],28.4%
same,"viability, T/C",[13],72.2%
same,"viability, T/C",[14],70.9%
same,"viability, T/C",[15],74.3%
same,"viability, T/C",[16],71.2%
same,"viability, T/C",[17],80.5%
same,"viability, T/C",[18],21.6%
same,"viability, T/C",[19],5.73%
same,"viability, T/C",[20],6.71%
same,"viability, T/C",[21],6.34%
same,"viability, T/C",[22],6.11%
same,"viability, T/C",[23],7.84%
same,"viability, T/C",[24],4.96%
same,"viability, T/C",[25],3.72%
same,"viability, T/C",[26],2.29%
same,"viability, T/C",[27],1.42%
same,"viability, T/C",[28],3.37%
same,"viability, T/C",[29],1.39%
same,"viability, T/C",[30],1.49%
same,"viability, T/C",[31],2.97%
same,"viability, T/C",[32],0.51%
same,"viability, T/C",[33],2.24%
same,"viability, T/C",[34],0.81%
same,"viability, T/C",[35],0.61%
same,"viability, T/C",[36],0.62%
NC(=O)C(=Cn1cnc(-c2cc(C(F)(F)F)cc(C(F)(F)F)c2)n1)c1cncnc1 + CN1CCN(c2cc(C(=O)Nc3cc4cc(-c5cnn(C)c5)ccc4cn3)ccn2)CC1,IC50,second compound 0.0316 µM,53.7 nM
same,IC50,second compound 0.1 µM,29.4 nM
same,IC50,second compound 0.316 µM,< 9.49 nM
same,IC50,second compound 1 µM,< 9.49 nM
same,IC50,second compound 3.16 µM,< 9.49 nM
same,IC50,second compound 10 µM,< 9.49 nM
same,"viability, T/C","second compound 0.0316 µM, first compound 0.00949 µM",73.6%
same,"viability, T/C","second compound 0.0316 µM, first compound 0.03 µM",64%
same,"viability, T/C","second compound 0.0316 µM, first compound 0.0949 µM",36.1%
same,"viability, T/C","second compound 0.0316 µM, first compound 0.3 µM",18.6%
same,"viability, T/C","second compound 0.0316 µM, first compound 0.949 µM",10.6%
same,"viability, T/C","second compound 0.0316 µM, first compound 3 µM",11.7%
same,"viability, T/C","second compound 0.1 µM, first compound 0.00949 µM",68%
same,"viability, T/C","second compound 0.1 µM, first compound 0.03 µM",49.7%
same,"viability, T/C","second compound 0.1 µM, first compound 0.0949 µM",24.9%
same,"viability, T/C","second compound 0.1 µM, first compound 0.3 µM",11.1%
same,"viability, T/C","second compound 0.1 µM, first compound 0.949 µM",4.64%
same,"viability, T/C","second compound 0.1 µM, first compound 3 µM",5.12%
same,"viability, T/C","second compound 0.316 µM, first compound 0.00949 µM",33.9%
same,"viability, T/C","second compound 0.316 µM, first compound 0.03 µM",19.1%
same,"viability, T/C","second compound 0.316 µM, first compound 0.0949 µM",2.74%
same,"viability, T/C","second compound 0.316 µM, first compound 0.3 µM",0.87%
same,"viability, T/C","second compound 0.316 µM, first compound 0.949 µM",1.43%
same,"viability, T/C","second compound 0.316 µM, first compound 3 µM",1.38%
same,"viability, T/C","second compound 1 µM, first compound 0.00949 µM",0.93%
same,"viability, T/C","second compound 1 µM, first compound 0.03 µM",0.76%
same,"viability, T/C","second compound 1 µM, first compound 0.0949 µM",0.81%
same,"viability, T/C","second compound 1 µM, first compound 0.3 µM",1.31%
same,"viability, T/C","second compound 1 µM, first compound 0.949 µM",1.15%
same,"viability, T/C","second compound 1 µM, first compound 3 µM",2.01%
same,"viability, T/C","second compound 3.16 µM, first compound 0.00949 µM",1.17%
same,"viability, T/C","second compound 3.16 µM, first compound 0.03 µM",0.72%
same,"viability, T/C","second compound 3.16 µM, first compound 0.0949 µM",1.2%
same,"viability, T/C","second compound 3.16 µM, first compound 0.3 µM",1.12%
same,"viability, T/C","second compound 3.16 µM, first compound 0.949 µM",1.5%
same,"viability, T/C","second compound 3.16 µM, first compound 3 µM",2.18%
same,"viability, T/C","second compound 10 µM, first compound 0.00949 µM",0.52%
same,"viability, T/C","second compound 10 µM, first compound 0.03 µM",0.5%
same,"viability, T/C","second compound 10 µM, first compound 0.0949 µM",0.74%
same,"viability, T/C","second compound 10 µM, first compound 0.3 µM",0.52%
same,"viability, T/C","second compound 10 µM, first compound 0.949 µM",0.45%
same,"viability, T/C","second compound 10 µM, first compound 3 µM",1.52%
Nc1ccccc1NC(=O)c1ccc(CNC(=O)OCc2cccnc2)cc1 + CN1CCN(c2cc(C(=O)Nc3cc4cc(-c5cnn(C)c5)ccc4cn3)ccn2)CC1,IC50,second compound 0.0316 µM,6350 nM
same,IC50,second compound 0.1 µM,5030 nM
same,IC50,second compound 0.316 µM,2330 nM
same,IC50,second compound 1 µM,< 31.6 nM
same,IC50,second compound 3.16 µM,< 31.6 nM
same,IC50,second compound 10 µM,< 31.6 nM
same,"viability, T/C",[1],99.7%
same,"viability, T/C",[2],103%
same,"viability, T/C",[3],91.4%
same,"viability, T/C",[4],81.7%
same,"viability, T/C",[5],61.8%
same,"viability, T/C",[6],42.3%
same,"viability, T/C",[7],110%
same,"viability, T/C",[8],88.1%
same,"viability, T/C",[9],83.7%
same,"viability, T/C",[10],71.1%
same,"viability, T/C",[11],60%
same,"viability, T/C",[12],38.3%
same,"viability, T/C",[13],70.1%
same,"viability, T/C",[14],64.8%
same,"viability, T/C",[15],64.3%
same,"viability, T/C",[16],60.4%
same,"viability, T/C",[17],46.4%
same,"viability, T/C",[18],20.9%
same,"viability, T/C",[19],8.94%
same,"viability, T/C",[20],5.54%
same,"viability, T/C",[21],6.13%
same,"viability, T/C",[22],3.31%
same,"viability, T/C",[23],1.46%
same,"viability, T/C",[24],1.42%
same,"viability, T/C",[25],0.74%
same,"viability, T/C",[26],0.78%
same,"viability, T/C",[27],0.83%
same,"viability, T/C",[28],2.18%
same,"viability, T/C",[29],1.99%
same,"viability, T/C",[30],1.71%
same,"viability, T/C",[31],0.41%
same,"viability, T/C",[32],1.24%
same,"viability, T/C",[33],1.06%
same,"viability, T/C",[34],0.6%
same,"viability, T/C",[35],0.7%
same,"viability, T/C",[36],1.88%

# — PubChem BioAssay AID2060600 (Molecular Pharmacology Branch, DTP, NCI, 2025)
